Counter-ions that a name gives are not always drawn.
Assays:
human CDK4/cyclin D3 = molecular target: T1, human CDK4/cyclin D3 (Homo sapiens, UniProt P11802); assay: Inhibition of CDK4/cyclin D retinoblastoma kinase activity (Ki; % inhibition); type: biochemical; conditions: apparent Ki, CDK4/cyclin D3, Rb substrate
T1 construct: made in house; host or cells: insect cells co-infected with baculovirus vectors
Method in brief: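 Insect-cell-expressed CDK4 with truncated cyclin D3 (1-264), 5 nM, phosphorylating His-tagged Rb fragment (386-928) with 25 μM [32/33P]ATP at pH 7.4, 30 °C, 20 min (60 min for tight binders). Filter capture, phosphorimager read; % inhibition at 30 nM compound, Ki from competitive or tight-binding fits.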

HCT-116 cell line = assay: Inhibition of cell growth, MTT tetrazolium salt assay; type: cell-based; conditions: Homo sapiens, HCT-116, 120 h, MTT, three to five days; for IC90: 90% inhibition of growth
Method in brief: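 Growth inhibition was read as MTT-formazan absorbance at 540 nm, after 4 h with 0.2 mg/mL MTT. Before that, HCT-116 cells had been exposed 3–5 days at 37 °C to compounds in 0.5% (v/v) DMSO, added 4 h after plating. 50% and 90% inhibitory concentrations were taken from semi-log concentration–inhibition plots versus vehicle controls.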

[1] = molecular target: T2, Phosphorylated FGF receptor kinase (FGFR1 cytosolic domain) (Homo sapiens, UniProt P11362, C488A/C584S/L457V); assay: Inhibition of phosphorylated FGF receptor tyrosine kinase activity (coupled spectrophotometric assay); type: biochemical; conditions: read-out: P-FGF % Inhibition at 1 μM
T2 construct: FGFR1 tyrosine kinase (amino acids 456-766); made in house; host or cells: Sf9 insect cells (baculovirus)
T2 sequence (P11362 456-766 L457V/C488A/C584S): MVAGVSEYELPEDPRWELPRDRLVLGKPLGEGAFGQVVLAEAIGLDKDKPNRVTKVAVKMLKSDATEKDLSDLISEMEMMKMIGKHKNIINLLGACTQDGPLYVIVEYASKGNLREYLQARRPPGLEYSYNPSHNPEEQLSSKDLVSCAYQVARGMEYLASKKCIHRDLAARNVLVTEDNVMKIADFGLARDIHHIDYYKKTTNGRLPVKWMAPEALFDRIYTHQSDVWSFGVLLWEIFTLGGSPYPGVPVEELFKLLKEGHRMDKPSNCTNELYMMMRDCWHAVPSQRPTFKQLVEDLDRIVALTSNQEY
Method: Cloning, expression and purification of the cytosolic domain of FGFR1 tyrosine kinase (amino acids 456-766) containing three amino acid substitutions (L457V, C488A, and C584S) were conducted as previously described (Mohammadi, M., Schiessinger, J., & Hubbard, S. R. Cell, 86, (1996) 577-587). This domain was expressed in Sf9 insect cells using a baculovirus expression vector, and protein was purified using conventional techniques. The LCK tyrosine kinase was expressed in insect cells as an N-terminal deletion starting from amino acid 223 to the end of the protein at amino acid 509. The N-terminus of the protein also had two amino acid substitutions, P223M and C224D. Kinases were purified using conventional chromatographic methods.
Tyrosine kinase activity was measured using a coupled, continuous spectrophotometric assay, in which production of phosphorylated poly(Glu,Tyr; 4:1) substrate and ADP is coupled to the pyruvate kinase-catalyzed transfer of a phosphate from phosphoenolpyruvate to ADP, with generation of pyruvate and regeneration of ATP. Pyruvate production is in turn coupled to the lactate dehydrogenase-catalyzed reduction of pyruvate to form lactate, with concomitant conversion of NADH to NAD^+. Loss of NADH is monitored by measuring absorbance at 340 nm (see e.g., Technikova-Dobrova et al., “Spectrophotometric Determination of Functional Characteristics of Protein Kinases with Coupled Enzymatic Assay,” FEBS Letters, 292 (1991), pp. 69-72). Enzyme activity was measured in the presence of 200 mM HEPES (pH 7.5), 2 mM phosphoenolpyruvate, 0.3 mM NADH, 20 mM MgCl2, 100 μM ATP, 5 mM DTT, 5.1 or 25 mM poly (Glu,Tyr) 4:1 for P-FGF or P-LCK assays, respectively, and 15 units/mL each of pyruvate kinase and lactate dehydrogenase. Phosphorylated FGF receptor kinase was present at 100 nM and phosphorylated LCK kinase was present at 50 nM. Assays were performed under initial rate conditions at 37° C., and rates were corrected for any background rate measured in the absence of enzyme. Percent inhibition was calculated relative to control enzyme assayed in the presence of 2% (v/v) DMSO.

T1 sequence (P11802 whole entry): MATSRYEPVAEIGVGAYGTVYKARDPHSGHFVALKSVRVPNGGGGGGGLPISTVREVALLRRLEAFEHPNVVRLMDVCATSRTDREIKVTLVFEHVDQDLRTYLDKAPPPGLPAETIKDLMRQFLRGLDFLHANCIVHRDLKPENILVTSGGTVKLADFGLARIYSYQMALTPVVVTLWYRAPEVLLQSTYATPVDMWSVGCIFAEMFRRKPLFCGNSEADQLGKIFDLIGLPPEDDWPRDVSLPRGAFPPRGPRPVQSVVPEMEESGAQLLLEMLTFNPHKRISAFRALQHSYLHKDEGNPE
T1 sequence (P30281 1-264 partner limits assumed): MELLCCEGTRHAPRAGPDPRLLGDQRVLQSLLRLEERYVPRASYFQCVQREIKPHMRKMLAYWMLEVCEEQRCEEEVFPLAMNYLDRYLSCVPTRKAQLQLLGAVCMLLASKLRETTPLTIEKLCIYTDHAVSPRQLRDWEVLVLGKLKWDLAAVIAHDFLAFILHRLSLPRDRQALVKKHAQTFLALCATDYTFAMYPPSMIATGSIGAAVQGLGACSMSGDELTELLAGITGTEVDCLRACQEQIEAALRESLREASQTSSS

Ki (human CDK4/cyclin D3) [nM] | IC50 (HCT-116 cell line) [nM] | IC90 (HCT-116 cell line) [nM] | inhibition at 1 µM [1] [%] | SMILES
32 | 76 | 180 | 0 | CC(CN(C)C)NC(=O)c1ccc(Nc2nc(N)c(C(=O)c3c(F)cccc3F)s2)cc1 (centres unmarked) [Example A20, 4-[4-Amino-5-(2,6-difluoro-benzoyl)-thiazol-2-ylamino]-N-(2-dimethylamino-1RS-methyl-ethyl)-benzamide Hydrochloride Salt]
7 | 90 | – | 0 | Nc1nc(Nc2ccc(C(=O)NCCN3CCCCC3)cc2)sc1C(=O)c1c(F)cccc1F [Example A15, 4-[4-Amino-5-(2,6-difluoro-benzoyl)-thiazol-2-ylamino]-N-(2-piperidin-1-yl-ethyl)-benzamide]
7 | 30 | 70 | 0 | CN1CCC[C@H]1CNC(=O)c1ccc(Nc2nc(N)c(C(=O)c3c(F)cccc3F)s2)cc1 [Example A31, 4-[4-Amino-5-(2,6-difluoro-benzoyl)-thiazol-2-ylamino]-N-(1-methyl-pyrrolidin-2S-yl-methyl)-benzamide Dihydrochloride]

More lines, now with the values behind:

SMILES | Ki (human CDK4/cyclin D3) [nM] | IC50 (HCT-116 cell line) [nM] | IC90 (HCT-116 cell line) [nM] | inhibition at 1 µM [1] [%]
Nc1nc(Nc2ccc(C(=O)NCCc3ccc(O)cc3)cc2)sc1C(=O)c1c(F)cccc1F [Example A14, 4-[4-Amino-5-(2,6-difluoro-benzoyl)-thiazol-2-ylamino]-N-[2-(4-hydroxy-phenyl)-ethyl]-benzamide] | 14 | 42 | – | 0
Nc1nc(Nc2ccc(C(=O)Nc3ccc(N4CCOCC4)cc3)cc2)sc1C(=O)c1c(F)cccc1F [Example A21] | 105 | 100 | – | 0

Reference: US6720346B2, “Thiazole benzamide derivatives and pharmaceutical compositions for inhibiting cell proliferation” (Agouron Pharmaceuticals, Inc., priority 2001, dated 2004)
